Results as given in publication PMC11171218, “N-Benzylated 5-Hydroxybenzothiophene-2-carboxamides as Multi-Targeted Clk/Dyrk Inhibitors and Potential Anticancer Agents” (Cancers, 2024).

Tests used:
[1] = target: Dyrk1B (Homo sapiens, UniProt Q9Y463); experiment: Z'-LYTE kinase inhibition assay, Dyrk1B; type: biochemical; conditions: for IC50: ATP conc. equivalent to Km; for inhibition at 1 µM: read-out: Dyrk1B % Inh. At 1 µM
Description: (§1) 3. Experimental procedure for protein kinases and inhibition assays.
(§2) 3.1 The Z ́ -LYTE biochemical assay for screening and IC 50 determination for Clk1, Dyrk1A, Dyrk1B, Clk2 and Clk3 kinases.
(§3) The assay employs a fluorescence-based, coupled-enzyme format and is based on the differential sensitivity of phosphorylated and non-phosphorylated peptides to proteolytic cleavage. The peptide substrate is labeled with two fluorophores-one at each end-that make up a FRET pair. In the primary reaction, the kinase transfers the gamma-phosphate of ATP to a single tyrosine, serine, or threonine residue in a synthetic FRET-peptide. In the secondary reaction, a site-specific protease recognizes and cleaves non-phosphorylated FRET-peptides. Phosphorylation of FRET-peptides suppresses cleavage by the Development Reagent. Cleavage disrupts FRET between the donor (i.e., coumarin) and acceptor (i.e., fluorescein) fluorophores on the FRET-peptide, whereas uncleaved, phosphorylated FRET-peptides maintain FRET. A ratiometric method, which calculates the ratio (the Emission Ratio) of donor emission to acceptor emission after excitation of the donor fluorophore at 400 nm, is used to quantitate reaction progress. Both cleaved and uncleaved FRET-peptides contribute to the fluorescence signals and therefore to the Emission Ratio. The extent of phosphorylation of the FRET-peptide can be calculated from the Emission Ratio. The Emission Ratio will remain low if the FRET-peptide is phosphorylated (i.e., no kinase inhibition) and will be high if the FRET-peptide is non-phosphorylated (i.e., kinase inhibition).
(§4) The IC 50 values were determined for compounds displaying significant % inhibition in the screening step. IC 50 determination was done through testing at a range of concentrations with two […]
(§5) two independent experiments. […]
3.1.3 Dyrk1B kinase assay specific conditions:
The 2X Dyrk1B / Ser/Thr 18 mixture is prepared in 50 mM HEPES pH 6.5, 0.01% BRIJ-35, 10 […]
mM MgCl2, 1 mM EGTA, 0.02% NaN3.
(§6) Development Reagent A is added. […]
(§7) MgCl2, 1 mM EGTA, 0.02% NaN3. […]

[2] = target: Dyrk1A (Homo sapiens, UniProt Q13627); experiment: Z'-LYTE kinase inhibition assay, Dyrk1A; type: biochemical; conditions: for inhibition at 1 µM: read-out: Dyrk1A % Inh. At 1 µM; for IC50: ATP conc. equivalent to Km
Description: as §1, §2, §3, §4, §5
3.1.2 Dyrk1A kinase assay specific conditions:
The 2x Dyrk1A / Ser/Thr 18 mixture is prepared in 50 mM HEPES pH 7.5, 0.01% BRIJ-35, 10 […]
2 µM Ser/Thr 18 in 50 mM HEPES pH 7.5, 0.01% BRIJ-35, 10 mM MgCl 2, 1 mM EGTA. […]
as §6, §7

[3] = target: Clk1 (Homo sapiens, UniProt P49759); experiment: Z'-LYTE kinase inhibition assay, Clk1; type: biochemical; conditions: for IC50: ATP conc. equivalent to Km; for inhibition at 1 µM: read-out: Clk1 % Inh. At 1 µM
Description: as §1, §2, §3, §4
two independent experiments.
3.1.1 Clk1 kinase assay specific conditions:
The 2x Clk1 / Ser/Thr 09 mixture is prepared in 50 mM HEPES pH 7.5, 0.01% BRIJ-35, 10 mM MgCl 2, 1 mM EGTA. The final 10 μL kinase reaction consists of 30 - 120 ng Clk1 and 2 μM Ser/Thr 09 in 50 mM HEPES pH 7.5, 0.01% BRIJ-35, 10 mM MgCl 2, 1 mM EGTA. After the 1 h

Dyrk1B, sequence (Q9Y463 whole entry): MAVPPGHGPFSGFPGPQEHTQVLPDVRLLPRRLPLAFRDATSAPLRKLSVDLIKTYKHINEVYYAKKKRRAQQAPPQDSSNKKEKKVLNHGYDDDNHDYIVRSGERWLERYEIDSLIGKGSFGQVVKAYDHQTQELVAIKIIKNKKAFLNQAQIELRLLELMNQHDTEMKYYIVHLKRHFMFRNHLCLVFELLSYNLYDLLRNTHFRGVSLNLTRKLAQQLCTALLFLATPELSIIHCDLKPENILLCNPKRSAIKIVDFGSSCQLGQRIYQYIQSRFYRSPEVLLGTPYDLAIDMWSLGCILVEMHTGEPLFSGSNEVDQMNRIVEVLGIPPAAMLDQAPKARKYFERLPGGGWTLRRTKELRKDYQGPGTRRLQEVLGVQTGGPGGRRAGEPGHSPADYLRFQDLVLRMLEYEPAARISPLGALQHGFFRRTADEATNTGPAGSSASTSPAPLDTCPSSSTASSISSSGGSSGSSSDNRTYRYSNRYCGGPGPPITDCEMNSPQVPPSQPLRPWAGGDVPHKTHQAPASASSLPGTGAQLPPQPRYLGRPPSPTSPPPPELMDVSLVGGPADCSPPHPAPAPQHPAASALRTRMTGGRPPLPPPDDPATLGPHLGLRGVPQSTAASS
Clk1, sequence (P49759 whole entry): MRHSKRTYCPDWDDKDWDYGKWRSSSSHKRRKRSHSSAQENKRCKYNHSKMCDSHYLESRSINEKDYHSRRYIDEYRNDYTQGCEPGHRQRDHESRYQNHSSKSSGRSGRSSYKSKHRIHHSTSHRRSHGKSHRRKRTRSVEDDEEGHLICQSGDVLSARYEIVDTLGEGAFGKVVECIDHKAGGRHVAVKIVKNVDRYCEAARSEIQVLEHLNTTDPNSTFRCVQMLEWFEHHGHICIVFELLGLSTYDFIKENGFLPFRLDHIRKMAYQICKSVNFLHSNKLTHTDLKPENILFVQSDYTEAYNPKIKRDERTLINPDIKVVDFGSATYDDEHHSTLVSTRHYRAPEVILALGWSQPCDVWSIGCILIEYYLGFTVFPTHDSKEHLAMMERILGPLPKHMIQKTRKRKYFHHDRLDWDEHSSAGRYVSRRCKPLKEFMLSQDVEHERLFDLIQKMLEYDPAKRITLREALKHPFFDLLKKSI

## O=C(NCc1ccccc1)c1cc2cc(O)ccc2s1 [Compound 1, N-Benzyl-5-hydroxybenzo[b]thiophene-2-carboxamide]
[1]
  IC50: 833 nM
  inhibition at 1 µM: 60%
[2]
  inhibition at 1 µM: 46%
[3]
  IC50: 740 nM
  inhibition at 1 µM: 60%

## O=C(NCc1ccccc1Cl)c1cc2cc(O)ccc2s1 [Compound 2, N-(2-Chlorobenzyl)-5-hydroxybenzo[b]thiophene-2-carboxamide]
[1]
  inhibition at 1 µM: 46%
[2]
  IC50: 700 nM
  inhibition at 1 µM: 61%
other
  melting point: 140.2 to 142 °C
[3]
  IC50: 769 nM
  inhibition at 1 µM: 61%

## O=C(NCc1ccc(Cl)cc1)c1cc2cc(O)ccc2s1 [Compound 4, N-(4-Chlorobenzyl)-5-hydroxybenzo[b]thiophene-2-carboxamide]
[1]
  inhibition at 1 µM: 0%
[2]
  inhibition at 1 µM: 7%
other
  melting point: 182 to 183.7 °C
[3]
  inhibition at 1 µM: 40%

## O=C(NCc1ccccc1F)c1cc2cc(O)ccc2s1 [Compound 5, N-(2-Fluorobenzyl)-5-hydroxybenzo[b]thiophene-2-carboxamide]
[1]
  IC50: 722 nM
  inhibition at 1 µM: 62%
[2]
  inhibition at 1 µM: 48%
other
  melting point: 199.8 to 201.7 °C
[3]
  IC50: 778 nM
  inhibition at 1 µM: 63%

## O=C(NCc1ccc(F)cc1)c1cc2cc(O)ccc2s1 [Compound 7, N-(4-Fluorobenzyl)-5-hydroxybenzo[b]thiophene-2-carboxamide]
[1]
  inhibition at 1 µM: 38%
[2]
  inhibition at 1 µM: 26%
other
  melting point: 195 to 197.2 °C
[3]
  inhibition at 1 µM: 50%

## Cc1ccccc1CNC(=O)c1cc2cc(O)ccc2s1 [Compound 8, 5-Hydroxy-N-(2-methylbenzyl)benzo[b]thiophene-2-carboxamide]
[1]
  inhibition at 1 µM: 48%
[2]
  IC50: 853 nM
  inhibition at 1 µM: 61%
other
  melting point: 159.1 to 161.2 °C
[3]
  IC50: 594 nM
  inhibition at 1 µM: 63%

## Cc1cccc(CNC(=O)c2cc3cc(O)ccc3s2)c1 [Compound 9, 5-Hydroxy-N-(3-methylbenzyl)benzo[b]thiophene-2-carboxamide]
[1]
  inhibition at 1 µM: 40%
[2]
  inhibition at 1 µM: 33%
other
  melting point: 176.3 to 178.4 °C
[3]
  IC50: 787 nM
  inhibition at 1 µM: 61%

## Cc1ccc(CNC(=O)c2cc3cc(O)ccc3s2)cc1 [Compound 10, 5-Hydroxy-N-(4-methylbenzyl)benzo[b]thiophene-2-carboxamide]
[1]
  inhibition at 1 µM: 0%
[2]
  inhibition at 1 µM: 8%
other
  melting point: 186.6 to 187.6 °C
[3]
  inhibition at 1 µM: 30%

## COc1ccc(CNC(=O)c2cc3cc(O)ccc3s2)cc1 [Compound 13, 5-Hydroxy-N-(4-methoxybenzyl)benzo[b]thiophene-2-carboxamide]
[1]
  inhibition at 1 µM: 16%
[2]
  inhibition at 1 µM: 9%
other
  melting point: 176.5 to 178 °C
[3]
  inhibition at 1 µM: 17%

## O=C(NCc1cc(Cl)cc(Cl)c1)c1cc2cc(O)ccc2s1 [Compound 14, N-(3,5-Dichlorobenzyl)-5-hydroxybenzo[b]thiophene-2-carboxamide]
[1]
  inhibition at 1 µM: 12%
[2]
  inhibition at 1 µM: 41%
other
  melting point: 189.4 to 192.1 °C
[3]
  IC50: 744 nM
  inhibition at 1 µM: 61%

## O=C(NCc1cccc(F)c1F)c1cc2cc(O)ccc2s1 [Compound 15, N-(2,3-Difluorobenzyl)-5-hydroxybenzo[b]thiophene-2-carboxamide]
[1]
  IC50: 645 nM
  inhibition at 1 µM: 61%
[2]
  inhibition at 1 µM: 53%
other
  melting point: 199.7 to 201.9 °C
[3]
  IC50: 779 nM
  inhibition at 1 µM: 61%

## O=C(NCc1ccc(F)cc1F)c1cc2cc(O)ccc2s1 [Compound 16, N-(2,4-Difluorobenzyl)-5-hydroxybenzo[b]thiophene-2-carboxamide]
[1]
  inhibition at 1 µM: 53%
[2]
  inhibition at 1 µM: 40%
[3]
  inhibition at 1 µM: 50%

## O=C(NCc1cc(C(F)(F)F)cc(C(F)(F)F)c1)c1cc2cc(O)ccc2s1 [Compound 18, N-(3,5-Bis(trifluoromethyl)benzyl)-5-hydroxybenzo[b]thiophene-2-carboxamide]
[1]
  inhibition at 1 µM: 0%
[2]
  inhibition at 1 µM: 8%
other
  melting point: 199 to 201 °C
[3]
  inhibition at 1 µM: 26%

## Cc1cc(C)cc(CNC(=O)c2cc3cc(O)ccc3s2)c1 [Compound 19, N-(3,5-Dimethylbenzyl)-5-hydroxybenzo[b]thiophene-2-carboxamide]
[1]
  inhibition at 1 µM: 0%
[2]
  inhibition at 1 µM: 22%
other
  melting point: 140.2 to 141.8 °C
[3]
  inhibition at 1 µM: 53%

## COc1cccc(CNC(=O)c2cc3cc(O)ccc3s2)c1OC [Compound 20, N-(2,3-Dimethoxybenzyl)-5-hydroxybenzo[b]thiophene-2-carboxamide]
[1]
  inhibition at 1 µM: 19%
[2]
  inhibition at 1 µM: 14%
other
  melting point: 181.1 to 183.3 °C
[3]
  inhibition at 1 µM: 21%

## COc1ccc(CNC(=O)c2cc3cc(O)ccc3s2)c(OC)c1 [Compound 21, N-(2,4-Dimethoxybenzyl)-5-hydroxybenzo[b]thiophene-2-carboxamide]
[1]
  inhibition at 1 µM: 17%
[2]
  inhibition at 1 µM: 9%
other
  melting point: 163.3 to 164.5 °C
[3]
  inhibition at 1 µM: 43%

## COc1ccc(CNC(=O)c2cc3cc(O)ccc3s2)cc1OC [Compound 22, N-(3,4-Dimethoxybenzyl)-5-hydroxybenzo[b]thiophene-2-carboxamide]
[1]
  inhibition at 1 µM: 16%
[2]
  inhibition at 1 µM: 8%
other
  melting point: 188.3 to 190.3 °C
[3]
  inhibition at 1 µM: 18%

## COc1cc(CNC(=O)c2cc3cc(O)ccc3s2)cc(OC)c1 [Compound 23, N-(3,5-Dimethoxybenzyl)-5-hydroxybenzo[b]thiophene-2-carboxamide]
[1]
  inhibition at 1 µM: 22%
[2]
  inhibition at 1 µM: 12%
[3]
  inhibition at 1 µM: 22%

## O=C(c1cc2cc(O)ccc2s1)N1CCc2ccccc2C1 [Compound 24, (3,4-Dihydroisoquinolin-2(1H)-yl)(5-hydroxybenzo[b]thiophen-2-yl)methanone]
[1]
  inhibition at 1 µM: 21%
[2]
  inhibition at 1 µM: 12%
other
  melting point: 198.8 to 200.8 °C
[3]
  inhibition at 1 µM: 33%

## O=C(c1cc2cc(O)ccc2s1)N1Cc2ccc(Cl)cc2C1 [Compound 25, (5-Chloroisoindolin-2-yl)(5-hydroxybenzo[b]thiophen-2-yl)methanone]
[1]
  inhibition at 1 µM: 24%
[2]
  inhibition at 1 µM: 13%
other
  melting point: 224.9 to 226 °C
[3]
  IC50: 608 nM
  inhibition at 1 µM: 62%

## O=C(NCc1cccnc1)c1cc2cc(O)ccc2s1 [Compound 26, 5-Hydroxy-N-(pyridin-3-ylmethyl)benzo[b]thiophene-2-carboxamide]
[1]
  inhibition at 1 µM: 39%
[2]
  inhibition at 1 µM: 34%
other
  melting point: 198 to 200.8 °C
[3]
  inhibition at 1 µM: 47%

## O=C(NCc1cccs1)c1cc2cc(O)ccc2s1 [Compound 27, 5-Hydroxy-N-(thiophen-2-ylmethyl)benzo[b]thiophene-2-carboxamide]
[1]
  IC50: 703 nM
  inhibition at 1 µM: 61%
[2]
  inhibition at 1 µM: 53%
other
  melting point: 139.6 to 141.4 °C
[3]
  IC50: 705 nM
  inhibition at 1 µM: 60%

## O=C(NCc1ccco1)c1cc2cc(O)ccc2s1 [Compound 28, N-(Furan-2-Ylmethyl)-5-hydroxybenzo[b]thiophene-2-carboxamide]
[1]
  inhibition at 1 µM: 52%
[2]
  IC50: 779 nM
  inhibition at 1 µM: 66%
other
  melting point: 99.2 to 101.6 °C
[3]
  IC50: 585 nM
  inhibition at 1 µM: 61%

## O=C(NCCc1ccccc1)c1cc2cc(O)ccc2s1 [Compound 29, 5-Hydroxy-N-phenethylbenzo[b]thiophene-2-carboxamide]
[1]
  inhibition at 1 µM: 48%
[2]
  inhibition at 1 µM: 29%
other
  melting point: 99.2 to 101.1 °C
[3]
  IC50: 753 nM
  inhibition at 1 µM: 61%

## O=C(NCCc1c[nH]c2ccccc12)c1cc2cc(O)ccc2s1 [Compound 30, N-(2-(1H-Indol-3-yl)ethyl)-5-hydroxybenzo[b]thiophene-2-carboxamide]
[1]
  inhibition at 1 µM: 40%
[2]
  inhibition at 1 µM: 20%
other
  melting point: 211.4 to 213 °C
[3]
  IC50: 350 nM
  inhibition at 1 µM: 74%
